For the data set, the system named is salivation in rabbits. Nature of the data set: Salivation inhibition in rabbits (pilocarpine-increased salivation; anticholinergic action). In kind it is in vivo. The settings on record: light urethane narcosis, 3 mg/kg i.v., pilocarpine 5 mg/kg s.c. The procedure: The low anticholinergic action can be shown by the lack of salivation inhibition in rabbits: The salivation in rabbits under light urethane narcosis was increased by pilocarpine injection (5 mg/kg. s.c.) and the amount of saliva was measured at 5-minute intervals. The inhibition of salivation is expressed as a percentage based upon the salivation of animals which only received pilocarpine.

Where a name gives a salt, the structure may show the parent alone.

For `Cc1cccc2c1C=Cc1ccccc1C2=CCC[N+](C)(C)[O-]` [1-methyl-5-(3-dimethylaminopropylidene)-5H-dibenzo[a,d]cycloheptene N-oxide hydrochloride], the “% Inhibition of Salivation” value came to 14%.

As for `Cc1cccc2c1C=Cc1ccccc1C2=CCCN(C)C.Cl` [1-methyl-5-(3-dimethylaminopropylidene)-5H-dibenzo[a,d]cycloheptene hydrochloride], the “% Inhibition of Salivation” value is given as 60%.

`CNCCC=C1c2ccccc2C=Cc2c(C)cccc21.Cl` [1-methyl-5-(3-methylaminopropylidene)-5H-dibenzo[a,d]cycloheptene hydrochloride]: the “% Inhibition of Salivation” value came out at 60%.

Take `Cc1cccc2c1CCc1ccccc1C2CCCN(C)C.Cl` (stereo not shown) [1-methyl-10,11-dihydro-5-(3-dimethylaminopropyl)-5H-dibenzo[a,d]cycloheptene hydrochloride]: the “% Inhibition of Salivation” value is given as 50%.

With `Cc1cccc2c1CCc1ccccc1C2=CCCN(C)C.Cl` [1-methyl-10,11-dihydro-5-(3-dimethylaminopropylidene)-5H-dibenzo[a,d]cycloheptene hydrochloride], the “% Inhibition of Salivation” value was determined as 50%.

As for `CNCCCC1c2ccccc2CCc2c(C)cccc21.Cl` (stereo not shown) [1-methyl-10,11-dihydro-5-(3-methylaminopropyl)-5H-dibenzo[a,d]cycloheptene hydrochloride], the “% Inhibition of Salivation” value came to 40%.

On to `CNCCC=C1c2ccccc2CCc2c(C)cccc21.Cl` [1-methyl-10,11-dihydro-5-(3-methylaminopropylidene)-5H-dibenzo [a,d]cycloheptene hydrochloride], for which the “% Inhibition of Salivation” value is recorded as 50%.

These data come from patent US4136116A, “Tricyclic compounds” (Hoffmann-La Roche Inc., priority 1975, dated 1979).
